Patent publication US8263601B2, “Deuterium substituted xanthine derivatives” (CoNCERT Pharmaceuticals, Inc., priority 2009, dated 2012)
Read-outs that look alike come from different tables or passages of the source.

How the values were obtained:
[1] = Pharmacokinetic study of 435(S) and other representative compounds in chimps after oral dosing (Example 40); assay type: in vivo; conditions: species named in label measured in plasma
Procedure: 435(S) and representative compounds 121(S), 137(S), 421(S) and 437(S) were separately dissolved in warm (65° C.) water at a concentration [[of 10 mg/mL]]. The same protocol described for Example 39 was then followed for each representative compound.

[2] = Pharmacokinetic study in rats of (S)-M1 and Compound 435(S) after intravenous dosing (Example 37); assay type: in vivo, male Sprague-Dawley rats; conditions: intravenous bolus single 5 mg/kg dose of 1:1 combination of (S)-M1 and 435(S), species named in label measured in plasma
Procedure: (§1) (S)-M1 and Compound 435(S) (a deuterated form of (S)-M1) were separately dissolved in saline at a concentration of 10 mg/mL. A 1:1 mixture of the two compounds was then prepared containing a final concentration of 5 mg/mL of each compound, which was used for intravenous administration. For oral administration the mixture was further diluted in saline to a final concentration of 1 mg/mL for each compound.
(§2) Three male Sprague-Dawley rats were used in each of the oral and intravenous studies. Animals were fasted overnight prior to administration of compounds. Intravenous administration was achieved by bolus injection of a single 5 mg/kg dose of the 1:1 combination into the cannulated jugular vein of the rats. Cannulation was achieved the day prior to dosing on rats that had been placed under anesthesia using ketamine (IM 30 mg/kg). Oral administration was achieved by oral gavage of a single 5 mg/kg dose. Blood samples (250 μL) were collected from the dosed rats at various times post-dosing (2 min, 5 min, 10 min, 20 min, 30 min, 1 hr, 2 hr, 3 hr, 4 hr, 5 hr, 6 hr) by retro-orbital sampling of the rats temporarily anesthetized with isoflurane. Blood samples were placed in tubes containing K2-EDTA and stored on ice until centrifuged. Within 30 minutes of collection, plasma was isolated by centrifugation. A 100-μL aliquot was removed, mixed with 200 μL of acetonitrile and stored at −20° C. until further analysis by LC-MS/MS using an Applied Bio-systems API 4000 mass spectrometer.
(§3) Samples were analyzed for the presence of the administered compound, the corresponding ketone (pentoxifylline and Compound 409) and the corresponding M5 metabolite. Samples (10 μL) were injected into a Zorbax SB-C8 (Rapid Resolution) column (2.1×30 mm, 3.5 μm). The initial mobile phase condition was 100% A (10 mM ammonium acetate in water) and 0% B (methanol) with a flow rate at 0.5 mL/min. Mobile phase B was allowed to reach 55% in 3 minutes and from 55% to 90% in 1 minute before ramping back to 0% in another minute. The overall run time was 5 minutes. For pentoxifylline and its M1 and M5 metabolites, the precursor/product ion pairs were set at m/z 281/193 (M1), m/z 279/181 (pentoxifylline), and m/z 267/221 (M5).
(§4) For Compound 435(S) and Compound 409 more than one ion pair was set up for to detect species that arose from loss of deuterium. […] This loss of deuterium appears to occur both in vivo and ex vivo by an unknown mechanism. The addition of acetonitrile to serum samples was used to stop any additional ex vivo deuterium loss prior to analysis. Typically, no more than 2 deuterium atoms were replaced by hydrogen. For Compound 435(S), there is a deuterium at the methinyl position which was lost upon oxidation to the keto-compound 409. Reduction of 409 to an M1 metabolite introduced a proton at the methinyl position. When serum from animals dosed with 435(S) were analyzed to quantitate administered compound and metabolites, compound species were included with one and two less side chain deuteriums in the total amounts (referred to hereinafter as the “−1D” and the “−2D” species). Thus, for Compound 435(S) and Compound 409 separate ion pairs were set up to detect the compound and its corresponding −1D and −2D species. For Compound 435(S) three ion pairs were detected: m/z 291/197, 290/197, and […]. For Compound 409 ion pairs of m/z 288/186, 287/186 and 286/186 were monitored. Inclusion of −1D and −2D species in the measurements of Compound 409 and Compound 435(S) more accurately quantitates the total active species and is reasonable based on what is known about the metabolism and activities of pentoxifylline and its M-1 metabolites. Increased plasma exposure to Compound 409 or any M-1 metabolites of 409 would be desirable. This includes the −1D and −2D species.
(§5) [drawing 78] which has no deuterium on its acid side chain, only one ion pair was used at m/z 271/225. The internal standard for the analysis was indiplon.

[3] = Pharmacokinetic study in rats of (S)-M1 and Compound 435(S) after oral dosing (Example 37); assay type: in vivo, male Sprague-Dawley rats; conditions: oral gavage single 5 mg/kg dose, 1:1 mixture of (S)-M1 and 435(S), species named in label measured in plasma, −1D and −2D species included
Procedure: as §1, §2, §3, §4, §5

[4] = Pharmacokinetic study of pentoxifylline and Compound 435(S) in chimps after oral dosing (Example 38); assay type: in vivo; conditions: in vivo, po, 75 mg
Procedure: Pentoxifylline and Compound 435(S) were separately dissolved in warm (65° C.) saline at a concentration at 10 mg/mL. A 1:1 mixture of the two compounds was then prepared containing a final concentration of 5 mg/mL of each compound and the mixture was then sterile filtered through a 0.2-μm filter.
Two chimps (one male and one female) were used in each of the oral and intravenous studies. Animals were fasted overnight prior to administration of compounds. All animals were sedated with ketamine (approximately 10 mg/kg) and/or telazol (approximately 5 mg/kg) prior to dosing. Intravenous administration was achieved by IV infusion of 75 mg of each compound (15 mL total dosing solution) over 10 minutes. Oral administration was achieved by oral gavage of a single 75 mg dose of each compound (15 mL total dosing solution). Blood samples (6 mL) were collected from the dosed chimps at various times prior to and after dosing. For intravenous administrations blood samples were collected at 0 min (preinfusion), 5 min, 9.5 min (immediately before the end of the infusion), then 6, 15, 30 and 45 min, and 1, 2, 4, 6, 8, 10 and 12 hr after the infusion is stopped. For oral administrations, blood samples were collected at 0 min (predose), 15 and 30 min, and 1, 1.5, 2, 4, 6, 8, 10 and 12 hr postdose.
Blood samples were placed in tubes containing sodium heparin, mixed and stored on ice until centrifuged. Within 30 minutes of collection, plasma was isolated by centrifuging the blood samples and removing an aliquot (200 μL) of the resulting plasma. Each 200-μL aliquot of plasma was mixed with 400 μL acetonitrile and stored at −70° C. until further analysis by LC-MS/MS using an Applied Bio-systems API 4000 mass spectrometer.
The analysis of all samples by LC-MS/MS was performed as described above for the rat plasma samples in Example 37.

[5] = Pharmacokinetic study of pentoxifylline and Compound 435(S) in chimps after oral dosing (Example 39); assay type: in vivo; conditions: oral gavage 65 mg each of pentoxifylline and 435(S) in water, species named in label measured in plasma
Procedure: Pentoxifylline and Compound 435(S) were tested according to a protocol similar to the Oral Dosing protocol followed in Example 38, except that (a) the compounds were separately dissolved in water rather than saline; (b) the mixture of the two compounds was not sterile filtered; and (c) oral administration was achieved by oral gavage of a single 65 mg dose of each compound (13 mL total dosing solution).

in vivo = assay: in vivo; design: species or system male beagle dogs; conditions: dog, po, 2.5 mg/kg
Procedure: Metabolism of the title compounds were studied following oral administration to male beagle dogs. Blood samples were removed from dosed dogs at various time points and plasma isolated therefrom. The plasma samples were used for the determination of plasma drug levels by LC-MS/MS (liquid chromatography with tandem mass spectrometry) for estimating pharmacokinetic parameters.
Compound 409 and pentoxifylline were dissolved separately in saline to a concentration of 4 mg/mL. A 1:1 (v/v) mixture of the two solutions was prepared to yield a solution having a final concentration of 2 mg/mL of both Compound 409 and pentoxifylline.
Two male beagle dogs were fasted overnight and then orally dosed via gavage with 2.5 mg/kg of Compound 409 and pentoxifylline using the mixture described above. Blood samples (1.5-2 mL) were collected via the femoral vein at 0 min (pre-dose), 15 min, 30 min, 45 min, 1 hr, 1.5 hr, 2 hr, 3 hr, 4 hr, 6 hr, 8 hr, 10 hr, 12 hr, 16 hr and 24 hr post-dose. Blood was stored on ice prior to centrifugation to obtain plasma samples. Centrifugation took place within 1 hour of blood collection to harvest plasma (maximum volume). The plasma was decanted immediately and frozen/stored at −70° C. until analysis.

[6] = female, plasma, po, 65 mg, Table 17 iii): female chimp, 435(S) and 421(S), read-out: AUC0-12 Female
[7] = male, plasma, po, 65 mg, Table 17 iii): male chimp, 435(S) and 421(S), read-out: AUC0-12 Male
[8] = female, plasma, po, 65 mg, Table 17 iv): female chimp, 435(S) and 437(S), read-out: AUC0-12 Female

Compound: [2H]C([2H])([2H])[C@H](O)C([2H])([2H])CCCn1c(=O)c2c(ncn2C)n(C)c1=O [Compound 121(S), S-1-(4,4,6,6,6-d5-5-Hydroxyhexyl)-3,7-dimethyl-1H-purine-2,6(3H,7H)-dione]
- AUC(0-t) ([1]; female, plasma, po, 65 mg, Table 17 i): female chimp, 435(S) and 121(S), read-out: AUC0-12 Female): 105 ng·h/mL
- AUC(0-t) ([1]; male, plasma, po, 65 mg, Table 17 i): male chimp, 435(S) and 121(S), read-out: AUC0-12 Male): 304 ng·h/mL

Compound: [2H]C([2H])([2H])[C@]([2H])(O)C([2H])([2H])CCCn1c(=O)c2c(ncn2C)n(C)c1=O [Compound 137(S), (S)-1-(4,4,5,6,6,6-d6-5-Hydroxyhexyl)-3,7-dimethyl-1H-purine-2,6(3H,7H)-dione]
- AUC(0-t) ([1]; female, plasma, po, 65 mg, Table 17 ii): female chimp, 435(S) and 137(S), read-out: AUC0-12 Female): 163 ng·h/mL
- AUC(0-t) ([1]; male, plasma, po, 65 mg, Table 17 ii): male chimp, 435(S) and 137(S), read-out: AUC0-12 Male): 63 ng·h/mL

Compound: [2H]c1nc2c(c(=O)n(CCCC([2H])([2H])[C@@H](O)C([2H])([2H])[2H])c(=O)n2C)n1C [Compound 421(S), (S)-1-(4,4,6,6,6-d5-5-hydroxyhexyl)-3,7-dimethyl-8-d-1H-purine-2,6(3H,7H)-dione]
- AUC(0-t) [1, 6]: 634 ng·h/mL
- AUC(0-t) [1, 7]: 743 ng·h/mL

Compound: [2H]c1nc2c(c(=O)n(CCCC([2H])([2H])[C@@]([2H])(O)C([2H])([2H])[2H])c(=O)n2C)n1C [Compound 437(S), (S)-8-d1-1-(4,4,5,6,6,6-d6-5-Hydroxyhexyl)-3,7-dimethyl-1H-purine-2,6(3H,7H)-dione]
- AUC(0-t) [1, 8]: 1180 ng·h/mL
- AUC(0-t) ([1]; male, plasma, po, 65 mg, Table 17 iv): male chimp, 435(S) and 437(S), read-out: AUC0-12 Male): 757 ng·h/mL

Compound: Cn1cnc2c1c(=O)n(CCCC(=O)O)c(=O)n2C [Compound M5, reference compound]
- AUC0-∞ [2]: 1795 ± 521 ng·h/mL
- AUC0-12 Female ([1]; Table 17 i): female chimp, 435(S) and 121(S)): 653 ng·h/mL
- AUC0-12 Male ([1]; Table 17 i): male chimp, 435(S) and 121(S)): 630 ng·h/mL
- AUC0-12 Female ([1]; Table 17 ii): female chimp, 435(S) and 137(S)): 635 ng·h/mL
- AUC0-12 Male ([1]; Table 17 ii): male chimp, 435(S) and 137(S)): 539 ng·h/mL
- AUC0-∞ [3]: 2985 ± 601 ng·h/mL
- AUC0-∞ Female [4]: 1868 ng·h/mL
- AUC0-∞ Male [4]: 1456 ng·h/mL
- AUC0-12 Female ([5]; female chimp): 811 ng·h/mL
- AUC0-12 Male ([5]; male chimp): 817 ng·h/mL

Compound: [2H]c1nc2c(c(=O)n(CCCC(=O)O)c(=O)n2C)n1C [Deuterated M5 (M5b)]
- AUC(0-t) [1, 6]: 350 ng·h/mL
- AUC(0-t) [1, 8]: 416 ng·h/mL
- AUC(0-t) [1, 7]: 447 ng·h/mL

Compound: pentoxifylline [reference compound]
- Ave. AUC (in vivo): 448 ng·h/mL
- Ave. Cmax (in vivo): 784 ng/mL
